Assay results as given in ChEMBL document CHEMBL1201862, “PubChem BioAssay data set” (2004).
Activity calls are given as the source filed them.

How the values were obtained:
[1] = system: BJ; experiment: BJ-TERT fibroblast viability loss – cell-based, RAS-independent, luminescence, dose response (AID 1933); type: functional; settings: Homo sapiens
[2] = system: Vero; experiment: cells; type: functional; settings: Chlorocebus sabaeus
[3] = target: Neurotensin receptor type 1 (Homo sapiens, UniProt P30989); type: functional;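 note: Image-based confirmatory dose-response assay measuring agonist activity at NTR1; NTR1-expressing U2OS osteosarcoma cells imaged for beta-arrestin GFP spot formation; agonist potency where compounds increase beta-arrestin recruitment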
[4] = system: BJ; experiment: cells; type: functional, cell-based; settings: Homo sapiens
[5] = system: BJ; experiment: BJ-TERT-LT-ST fibroblast viability loss – cell-based, RAS-independent, luminescence, dose response (AID 1935); type: functional; settings: Homo sapiens;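 note: BJ fibroblasts immortalized with TERT plus LT and ST oncogenes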
[6] = DRD fibroblast viability loss – cell-based, non-viral oncogenic, luminescence, dose response (AID 1934); type: functional; settings: Homo sapiens
[7] = system: Vero; experiment: cells; type: functional, cell-based; settings: Chlorocebus sabaeus
[8] = target: T1, Coagulation factor XII (Homo sapiens, UniProt P00748); type: functional;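 note: activated factor XIIa alpha cleaving a fluorogenic AMC peptide substrate; inhibitor potency from loss of enzyme activity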
T1 sequence (P00748 whole entry): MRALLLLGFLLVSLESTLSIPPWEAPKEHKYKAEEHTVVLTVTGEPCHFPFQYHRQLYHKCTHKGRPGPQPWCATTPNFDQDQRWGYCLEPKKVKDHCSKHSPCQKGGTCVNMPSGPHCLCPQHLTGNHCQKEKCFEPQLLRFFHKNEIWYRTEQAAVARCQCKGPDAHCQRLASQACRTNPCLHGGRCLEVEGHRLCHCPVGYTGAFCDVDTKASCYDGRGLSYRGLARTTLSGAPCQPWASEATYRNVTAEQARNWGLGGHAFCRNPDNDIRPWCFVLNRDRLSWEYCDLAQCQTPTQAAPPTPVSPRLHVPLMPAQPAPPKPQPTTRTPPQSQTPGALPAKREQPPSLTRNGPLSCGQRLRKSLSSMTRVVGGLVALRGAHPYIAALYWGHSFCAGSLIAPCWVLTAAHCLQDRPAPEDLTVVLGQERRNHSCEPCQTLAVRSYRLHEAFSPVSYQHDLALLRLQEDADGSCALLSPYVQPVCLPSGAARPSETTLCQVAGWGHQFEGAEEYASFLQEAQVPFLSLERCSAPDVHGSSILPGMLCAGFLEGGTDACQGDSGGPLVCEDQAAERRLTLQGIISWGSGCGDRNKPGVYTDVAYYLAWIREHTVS

[9] = target: G-protein coupled receptor 55 (Homo sapiens, UniProt Q9Y2T6); experiment: selective activators of receptor GPR55 – imaging, U2OS cells, beta-arrestin-GFP redistribution, primary screen (AID 1961); type: functional
[10] = target: Polyadenylate-binding protein 1 (Homo sapiens, UniProt P11940); experiment: PABP inhibition in translation initiation, SAR follow-up (AID 435018); type: functional
[11] = target: Eukaryotic translation initiation factor 4H (Homo sapiens, UniProt Q15056); experiment: inhibitors of translation initiation factor eIF4H – SAR follow-up (AID 435011); type: functional
[12] = target: SUMO E1/E2 (Homo sapiens, UniProt P63279+Q9UBE0+Q9UBT2); experiment: SAR analysis of SUMOylation using HTRF in an in-Vitro dose response assay. [Related pubchem assays (depositor defined):AID2006, AID2011, AID2018, AID2069, AID2658]; type: functional
[13] = target: T2, Hexokinase HKDC1 (Homo sapiens, UniProt Q2TB90); experiment: inhibition of HKDC1 glucose phosphorylation – biochemical, W721R variant, dose response (AID 504729); type: functional
T2 sequence (Q2TB90 whole entry): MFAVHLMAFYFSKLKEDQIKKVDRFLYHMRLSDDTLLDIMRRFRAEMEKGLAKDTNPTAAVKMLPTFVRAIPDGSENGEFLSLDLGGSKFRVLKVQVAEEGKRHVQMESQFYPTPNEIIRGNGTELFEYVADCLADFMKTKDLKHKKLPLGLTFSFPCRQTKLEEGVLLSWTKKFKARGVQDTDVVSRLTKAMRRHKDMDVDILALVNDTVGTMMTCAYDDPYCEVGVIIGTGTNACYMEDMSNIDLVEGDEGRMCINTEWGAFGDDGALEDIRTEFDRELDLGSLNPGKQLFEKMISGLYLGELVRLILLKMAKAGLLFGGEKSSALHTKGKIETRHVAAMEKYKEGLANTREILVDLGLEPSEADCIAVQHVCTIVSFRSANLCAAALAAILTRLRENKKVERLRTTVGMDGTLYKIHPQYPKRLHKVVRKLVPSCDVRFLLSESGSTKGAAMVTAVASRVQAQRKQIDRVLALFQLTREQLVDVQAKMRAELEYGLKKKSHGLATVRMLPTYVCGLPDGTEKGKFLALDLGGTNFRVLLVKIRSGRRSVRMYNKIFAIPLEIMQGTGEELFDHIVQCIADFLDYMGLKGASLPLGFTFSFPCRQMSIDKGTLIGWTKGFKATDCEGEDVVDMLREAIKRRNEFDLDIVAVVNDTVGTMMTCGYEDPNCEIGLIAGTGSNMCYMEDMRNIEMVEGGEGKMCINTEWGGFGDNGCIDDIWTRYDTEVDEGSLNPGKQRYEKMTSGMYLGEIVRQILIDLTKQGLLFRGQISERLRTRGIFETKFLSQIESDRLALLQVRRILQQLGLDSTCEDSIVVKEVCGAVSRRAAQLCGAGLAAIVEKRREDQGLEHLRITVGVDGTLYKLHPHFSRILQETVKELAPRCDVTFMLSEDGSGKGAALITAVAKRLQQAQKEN

Sequence of Polyadenylate-binding protein 1 (P11940 whole entry): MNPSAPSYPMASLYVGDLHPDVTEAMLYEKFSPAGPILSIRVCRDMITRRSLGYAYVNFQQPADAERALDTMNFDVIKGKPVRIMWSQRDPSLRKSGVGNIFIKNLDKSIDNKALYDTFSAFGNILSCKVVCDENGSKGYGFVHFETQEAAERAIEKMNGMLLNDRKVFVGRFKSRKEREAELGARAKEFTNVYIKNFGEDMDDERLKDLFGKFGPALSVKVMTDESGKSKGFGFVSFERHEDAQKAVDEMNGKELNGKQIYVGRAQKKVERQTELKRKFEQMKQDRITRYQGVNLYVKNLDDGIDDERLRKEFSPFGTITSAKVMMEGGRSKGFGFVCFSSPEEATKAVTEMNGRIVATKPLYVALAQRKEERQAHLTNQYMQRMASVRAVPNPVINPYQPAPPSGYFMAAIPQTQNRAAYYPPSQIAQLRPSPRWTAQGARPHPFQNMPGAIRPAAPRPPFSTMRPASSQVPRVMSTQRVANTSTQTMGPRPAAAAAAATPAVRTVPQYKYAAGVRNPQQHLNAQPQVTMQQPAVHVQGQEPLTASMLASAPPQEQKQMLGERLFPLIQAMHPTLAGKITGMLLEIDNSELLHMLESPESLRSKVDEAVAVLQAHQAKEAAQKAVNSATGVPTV
Sequence of G-protein coupled receptor 55 (Q9Y2T6 whole entry): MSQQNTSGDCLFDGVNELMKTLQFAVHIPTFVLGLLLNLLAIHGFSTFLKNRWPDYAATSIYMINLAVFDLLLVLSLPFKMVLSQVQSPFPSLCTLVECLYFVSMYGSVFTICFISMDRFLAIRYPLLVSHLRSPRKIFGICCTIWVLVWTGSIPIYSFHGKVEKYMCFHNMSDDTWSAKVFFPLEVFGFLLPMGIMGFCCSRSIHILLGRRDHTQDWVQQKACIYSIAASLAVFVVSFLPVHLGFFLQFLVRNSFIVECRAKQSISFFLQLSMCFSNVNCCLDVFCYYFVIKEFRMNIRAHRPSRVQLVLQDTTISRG
Sequence of Neurotensin receptor type 1 (P30989 whole entry): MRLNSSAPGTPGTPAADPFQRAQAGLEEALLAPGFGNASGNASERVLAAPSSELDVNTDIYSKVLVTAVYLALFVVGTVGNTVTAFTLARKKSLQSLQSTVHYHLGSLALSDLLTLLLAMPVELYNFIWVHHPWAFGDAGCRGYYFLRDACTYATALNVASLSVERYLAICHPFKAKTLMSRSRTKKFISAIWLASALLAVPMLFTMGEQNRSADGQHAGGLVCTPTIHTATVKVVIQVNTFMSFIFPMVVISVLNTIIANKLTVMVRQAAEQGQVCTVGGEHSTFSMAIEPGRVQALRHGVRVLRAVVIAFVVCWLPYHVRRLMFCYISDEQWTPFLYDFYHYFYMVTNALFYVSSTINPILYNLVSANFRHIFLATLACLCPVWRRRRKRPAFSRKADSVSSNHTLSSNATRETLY
Sequence of SUMO E1/E2 (Q9UBE0 whole entry): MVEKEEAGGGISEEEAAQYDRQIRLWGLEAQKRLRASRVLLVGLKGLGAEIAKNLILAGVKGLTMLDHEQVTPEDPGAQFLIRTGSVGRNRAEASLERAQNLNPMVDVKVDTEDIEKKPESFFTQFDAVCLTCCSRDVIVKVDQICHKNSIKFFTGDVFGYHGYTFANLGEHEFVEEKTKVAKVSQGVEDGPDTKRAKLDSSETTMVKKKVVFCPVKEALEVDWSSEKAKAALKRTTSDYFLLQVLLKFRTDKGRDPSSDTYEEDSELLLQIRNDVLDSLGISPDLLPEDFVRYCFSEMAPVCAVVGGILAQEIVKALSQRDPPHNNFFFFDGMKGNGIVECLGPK
Sequence of SUMO E1/E2 (Q9UBT2 whole entry): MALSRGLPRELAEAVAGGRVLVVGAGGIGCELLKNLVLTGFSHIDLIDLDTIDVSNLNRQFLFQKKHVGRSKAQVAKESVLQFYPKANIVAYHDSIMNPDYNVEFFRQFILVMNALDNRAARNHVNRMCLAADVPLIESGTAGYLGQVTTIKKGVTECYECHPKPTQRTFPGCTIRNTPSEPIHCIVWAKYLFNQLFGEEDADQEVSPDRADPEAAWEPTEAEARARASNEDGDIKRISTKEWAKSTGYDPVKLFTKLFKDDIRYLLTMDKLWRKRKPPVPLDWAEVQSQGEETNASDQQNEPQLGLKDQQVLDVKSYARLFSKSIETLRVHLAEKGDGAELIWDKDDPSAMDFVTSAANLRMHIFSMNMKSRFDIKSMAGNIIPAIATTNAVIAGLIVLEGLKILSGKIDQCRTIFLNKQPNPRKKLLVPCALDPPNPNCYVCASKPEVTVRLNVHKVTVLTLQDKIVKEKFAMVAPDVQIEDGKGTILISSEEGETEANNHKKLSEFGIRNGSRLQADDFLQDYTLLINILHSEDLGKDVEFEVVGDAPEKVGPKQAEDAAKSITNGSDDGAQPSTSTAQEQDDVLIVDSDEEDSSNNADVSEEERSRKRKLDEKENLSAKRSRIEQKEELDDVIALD
Sequence of SUMO E1/E2 (P63279 whole entry): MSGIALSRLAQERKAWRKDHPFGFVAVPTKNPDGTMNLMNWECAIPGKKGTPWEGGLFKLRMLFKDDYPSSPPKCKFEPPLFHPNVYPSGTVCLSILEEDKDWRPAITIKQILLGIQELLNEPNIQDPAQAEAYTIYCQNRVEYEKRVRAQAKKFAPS

Structure (SMILES): CCN(CC)c1ccc(C=C2C(=O)NC(=S)NC2=O)cc1
- EC50 [1]: 13.5 µM (active)
- CC50 [2]: 13.9 µM (active)
- EC50 [3]: 3.91 µM (active)
- EC50 [4]: 15.9 µM (active)
- EC50 [5]: > 75 µM (inconclusive)
- EC50 [6]: 10.8 µM (active)
- IC50 [7]: > 25 µM (active)

Structure (SMILES): CNC(=O)COC(=O)c1cc(-c2ccco2)nc2ccccc12
- IC50 [8]: > 50 µM (inactive)

Structure (SMILES): COc1ccc(-c2n(CC(=O)OC3CC(C)CCC3C(C)C)c3ccccc3[n+]2C)cc1 (stereo unspecified)
- EC50 [9]: > 32 µM (inactive)

Structure (SMILES): O=C(CSc1ccc(-c2ccco2)nn1)N1CCCCCC1
- IC50 [10]: > 100 µM (inactive)
- IC50 [11]: 69.4 µM (active)

Structure (SMILES): CCOC(=O)CNC(=O)Cn1cnc2c(nnn2-c2cccc(Cl)c2)c1=O
- IC50 [8]: > 50 µM (inactive)

Structure (SMILES): Clc1ccc2c(c1)C1C=CCC1C(c1ccccc1)N2 (stereo unspecified)
- IC50 [12]: > 100 µM (inactive)

Structure (SMILES): Nc1c(Br)cc2c3c(cccc13)-c1ccccc1-2
- IC50 [13]: 4.58 µM (active)

Structure (SMILES): COc1ccc([N+](=O)[O-])cc1NC(=O)COC(=O)c1ccc(NC(N)=O)cc1
- IC50 [10]: > 100 µM (inactive)
- IC50 [11]: > 100 µM (inactive)
